molecular target: MTH1 (Homo sapiens, UniProt P36639); assay: MTH1 enzymatic assay (malachite green, coupled to pyrophosphatase); assay type: biochemical; conditions: not given
Experimental: MTH1 catalyzes the hydrolysis of dGTP to dGMP and PPi. By coupling the reaction to pyrophosphatase added in excess PPi is converted to Pi that can be detected by using the malachite green assay reagent. […] 96-well method: Briefly, the compound to be analyzed is diluted in DMSO in a 1:3 dilution series generating 12 different compound concentrations giving a final DMSO concentration of 1% in the assay well. MTH1 diluted in assay buffer (100 mM Tris-acetate, 40 mM NaCl, 10 mM magnesium acetate, 1 mM DTT and 0.005% Tween 20) fortified with E. coli pyrophosphatase (0.2 U/ml) is added to a final concentration of 6 nM. dGTP diluted in assay buffer is added to a final concentration of 100 μM. The reaction mixture is incubated for 15 minutes at 22° C. To 100 μl reaction mixture, 25 μl Malachite green assay regent (0.095% Malachite green in 17% H2SO4, 1.5% Ammonium molybdate, 0.17% Tween 20) is added, followed by incubation with shaking for 15 minutes at 22° C. The absorbance of the assay plate is read at 630 nm using a Hidex Sense Multilabel plate reader. The IC50 value is determined by fitting a dose response curve to the data points using nonlinear regression analysis and the equation Y=Bottom+(Top-Bottom)/(1+10^((Log IC50−X)*HillSlope)), where Y is the read absorbance at 630 nm and X is log [compound].
384-Well Method: The compounds to be tested are nano-dispensed, in 11 concentrations, directly in assay plates, with a final DMSO concentration <1%. The protocol and the reaction mixture are the same as for the 96-well assay, with a total reaction volume of 50 μl/well to which 10 μl of Malachite green reagent is added. All additions to the assay plates are made with multidrop.

`CNc1cc(-c2cccc(Cl)c2Cl)nc(N)n1` [Example 38, 6-(2,3-dichlorophenyl)-4-N-methylpyrimidine-2,4-diamine] was tested. Which IC50 did it give?
The IC50 was < 200 nM.

same assay, conditions: dGTP 100 μM, MTH1 6 nM; 96- or 384-well format; read-out: IC50

`Nc1nc(NC2CCCCC2)cc(-c2ccccc2)n1` [Example 1, 4-N-cyclohexyl-6-phenylpyrimidine-2,4-diamine] was tested. Which IC50 did it give?
Its IC50 is < 200 nM.

`CCNc1cc(-c2ccccc2)nc(N)n1` [Example 2, 4-N-ethyl-6-phenylpyrimidine-2,4-diamine] was tested. Which IC50 did it give?
The IC50 was < 200 nM.

For `Nc1nc(NC2CCOCC2)cc(-c2ccccc2)n1` [Example 7, 4-N-(oxan-4-yl)-6-phenylpyrimidine-2,4-diamine], which IC50 is on record?
The IC50 was < 200 nM.

How did the IC50 turn out when `Nc1nc(NC2CC2)cc(-c2ccc(Cl)cc2)n1` [Example 13, 6-(4-chlorophenyl)-4-N-cyclopropylpyrimidine-2,4-diamine] was run?
Its IC50 is < 200 nM.

`Nc1nc(NC2CC2)cc(-c2cccc(C(F)(F)F)c2)n1` [Example 16, 4-N-cyclopropyl-6-[3-(trifluoromethyl)phenyl]pyrimidine-2,4-diamine] was tested. Which IC50 did it give?
Its IC50 is < 200 nM.

With `Nc1nc(NC2CC2)cc(-c2cccc(Cl)c2)n1` [Example 19, 6-(3-chlorophenyl)-4-N-cyclopropylpyrimidine-2,4-diamine] as the compound, how does the IC50 read?
The IC50 was < 200 nM.

How did the IC50 turn out when `CNc1cc(-c2cn(S(=O)(=O)c3ccc(C)cc3)c3ccccc23)nc(N)n1` [Example 23, 4-N-methyl-6-[1-(4-methylbenzenesulfonyl)-1H-indol-3-yl]pyrimidine-2,4-diamine] was run?
Its IC50 is < 200 nM.

Which IC50 does the source give for `CNc1cc(-c2cn(S(=O)(=O)c3ccccc3)c3ccccc23)nc(N)n1` [Example 26, 6-[1-(benzenesulfonyl)-1H-indol-3-yl]-4-N-methylpyrimidine-2,4-diamine] here?
The IC50 was < 200 nM.

For `Cc1ccc(S(=O)(=O)n2cc(-c3cc(NC4CC4)nc(N)n3)c3ccccc32)cc1` [Example 27, 4-N-cyclopropyl-6-[1-(4-methylbenzenesulfonyl)-1H-indol-3-yl]pyrimidine-2,4-diamine], which IC50 is on record?
The IC50 was < 200 nM.

Which IC50 does the source give for `Nc1nc(NC2CC2)cc(-c2cn(S(=O)(=O)c3ccccc3)c3ccccc23)n1` [Example 28, 6-[1-(benzenesulfonyl)-1H-indol-3-yl]-4-N-cyclopropylpyrimidine-2,4-diamine] here?
Its IC50 is < 200 nM.

With `CNc1cc(-c2cn(S(=O)(=O)c3ccccc3)c3ncccc23)nc(N)n1` [Example 29, 6-[1-(benzenesulfonyl)-1H-pyrrolo[2,3-b]pyridin-3-yl]-4-N-methylpyrimidine-2,4-diamine] as the compound, how does the IC50 read?
The IC50 was < 200 nM.

With `CNc1cc(-c2cccc3c2ccn3S(=O)(=O)c2ccccc2)nc(N)n1` [Example 30, 6-[1-(benzenesulfonyl)-1H-indol-4-yl]-4-N-methylpyrimidine-2,4-diamine] as the compound, how does the IC50 read?
Its IC50 is < 200 nM.

How did the IC50 turn out when `CNc1cc(-c2ccc(OC)cc2)nc(N)n1` [Example 33, 6-(4-methoxyphenyl)-4-N-methylpyrimidine-2,4-diamine] was run?
The IC50 was < 200 nM.

With `CNc1cc(-c2cc(C(F)(F)F)cc(C(F)(F)F)c2)nc(N)n1` [Example 34, 6-[3,5-bis(trifluoromethyl)phenyl]-4-N-methylpyrimidine-2,4-diamine] as the compound, how does the IC50 read?
Its IC50 is < 200 nM.

How did the IC50 turn out when `CNc1cc(-c2cccc(C(F)(F)F)c2)nc(N)n1` [Example 37, 4-N-methyl-6-[3-(trifluoromethyl)phenyl]pyrimidine-2,4-diamine] was run?
Its IC50 is < 200 nM.

With `CNc1cc(-c2ccc3c(c2)OCO3)nc(N)n1` [Example 39, 6-(2H-1,3-benzodioxol-5-yl)-4-N-methylpyrimidine-2,4-diamine] as the compound, how does the IC50 read?
Its IC50 is < 200 nM.

How did the IC50 turn out when `CNc1cc(-c2cccc(NC(C)=O)c2)nc(N)n1` [Example 41, N-{3-[2-amino-6-(methylamino)pyrimidin-4-yl]phenyl}acetamide] was run?
The IC50 was < 200 nM.

Which IC50 does the source give for `CNc1cc(-c2ccc(NC(C)=O)cc2)nc(N)n1` [Example 47, N-{4-[2-amino-6-(methylamino)pyrimidin-4-yl]phenyl}acetamide] here?
The IC50 was < 200 nM.

`CNc1cc(-c2ccc(OC)nc2)nc(N)n1` [Example 49, 6-(6-methoxypyridin-3-yl)-4-N-methylpyrimidine-2,4-diamine.] was tested. Which IC50 did it give?
Its IC50 is < 200 nM.

Which IC50 does the source give for `CNc1cc(-c2ccc(-c3ccccc3)cc2F)nc(N)n1` [Example 50, 6-(2-fluoro-4-phenylphenyl)-4-N-methylpyrimidine-2,4-diamine.] here?
Its IC50 is < 200 nM.

Which IC50 does the source give for `C=CCNc1cc(-c2ccc(Cl)cc2)nc(N)n1` [Example 53, 6-(4-chlorophenyl)-4-N-(prop-2-en-1-yl)pyrimidine-2,4-diamine] here?
The IC50 was < 200 nM.

Which IC50 does the source give for `Nc1nc(NC2CCC2)cc(-c2ccc(Cl)cc2)n1` [Example 58, 6-(4-chlorophenyl)-4-N-cyclobutylpyrimidine-2,4-diamine] here?
Its IC50 is < 200 nM.

Which IC50 does the source give for `CCCCCNc1cc(-c2cccc(Cl)c2Cl)nc(N)n1` [Example 61, 6-(2,3-dichlorophenyl)-4-N-pentylpyrimidine-2,4-diamine] here?
The IC50 was < 200 nM.

With `CC(C)(C)Nc1cc(-c2cccc(Cl)c2Cl)nc(N)n1` [Example 63, 4-N-tert-butyl-6-(2,3-dichlorophenyl)pyrimidine-2,4-diamine] as the compound, how does the IC50 read?
The IC50 was < 200 nM.

How did the IC50 turn out when `CNc1cc(-c2ccc(Cl)c(Cl)c2)nc(N)n1` [Example 68, 6-(3,4-dichlorophenyl)-4-N-methylpyrimidine-2,4-diamine] was run?
The IC50 was < 200 nM.

Which IC50 does the source give for `CNc1cc(-c2ccc(C(C)(C)C)cc2)nc(N)n1` [Example 69, 6-(4-tert-butylphenyl)-4-N-methylpyrimidine-2,4-diamine] here?
Its IC50 is < 200 nM.

Which IC50 does the source give for `CNc1cc(-c2ccc(C)cc2)nc(N)n1` [Example 70, 4-N-methyl-6-(4-methylphenyl)pyrimidine-2,4-diamine] here?
Its IC50 is < 200 nM.

With `CNc1cc(-c2ccc(Cl)cc2Cl)nc(N)n1` [Example 71, 6-(2,4-dichlorophenyl)-4-N-methylpyrimidine-2,4-diamine] as the compound, how does the IC50 read?
Its IC50 is < 200 nM.

Which IC50 does the source give for `CNc1cc(-c2ccc(F)cc2F)nc(N)n1` [Example 75, 6-(2,4-difluorophenyl)-4-N-methylpyrimidine-2,4-diamine] here?
Its IC50 is < 200 nM.

`CNc1cc(-c2cc(F)ccc2OC)nc(N)n1` [Example 76, 6-(5-fluoro-2-methoxyphenyl)-4-N-methylpyrimidine-2,4-diamine] was tested. Which IC50 did it give?
The IC50 was < 200 nM.

How did the IC50 turn out when `CNc1cc(-c2ccc(OC)c(F)c2)nc(N)n1` [Example 82, 6-(3-fluoro-4-methoxyphenyl)-4-N-methylpyrimidine-2,4-diamine] was run?
The IC50 was < 200 nM.

Which IC50 does the source give for `CNc1cc(-c2ccc(F)c(F)c2)nc(N)n1` [Example 83, 6-(3,4-difluorophenyl)-4-N-methylpyrimidine-2,4-diamine] here?
The IC50 was < 200 nM.

With `CNc1cc(-c2ccc(OC(C)C)cc2)nc(N)n1` [Example 84, 4-N-methyl-6-[4-(propan-2-yloxy)phenyl]pyrimidine-2,4-diamine] as the compound, how does the IC50 read?
Its IC50 is < 200 nM.

Which IC50 does the source give for `CNc1cc(-c2cccc(C)c2C)nc(N)n1` [Example 86, 6-(2,3-dimethylphenyl)-4-N-methylpyrimidine-2,4-diamine] here?
Its IC50 is < 200 nM.

`CNc1cc(-c2ccc(Cl)c(F)c2)nc(N)n1` [Example 88, 6-(4-chloro-3-fluorophenyl)-4-N-methylpyrimidine-2,4-diamine] was tested. Which IC50 did it give?
Its IC50 is < 200 nM.

With `CNc1cc(-c2cccc(C(F)(F)F)c2Cl)nc(N)n1` [Example 91, 6-[2-chloro-3-(trifluoromethyl)phenyl]-4-N-methylpyrimidine-2,4-diamine] as the compound, how does the IC50 read?
Its IC50 is < 200 nM.

Which IC50 does the source give for `CNc1cc(-c2cccc(F)c2Cl)nc(N)n1` [Example 92, 6-(2-chloro-3-fluorophenyl)-4-N-methylpyrimidine-2,4-diamine] here?
Its IC50 is < 200 nM.

Which IC50 does the source give for `CNc1cc(-c2cccc(Cl)c2C)nc(N)n1` [Example 94, 6-(3-chloro-2-methylphenyl)-4-N-methylpyrimidine-2,4-diamine] here?
The IC50 was < 200 nM.

For `CNc1cc(-c2cc(OC)cc(Cl)c2Cl)nc(N)n1` [Example 99, 6-(2,3-dichloro-5-methoxyphenyl)-4-N-methylpyrimidine-2,4-diamine], which IC50 is on record?
Its IC50 is < 200 nM.

With `CNc1cc(-c2ccc(O)cc2)nc(N)n1` [Example 100, 4-[2-amino-6-(methylamino)pyrimidin-4-yl]phenol] as the compound, how does the IC50 read?
Its IC50 is < 200 nM.

With `CNc1cc(-c2ccc(C(=O)N3CCOCC3)c(Cl)c2)nc(N)n1` [Example 104, 6-[3-chloro-4-(morpholine-4-carbonyl)phenyl]-4-N-methylpyrimidine-2,4-diamine] as the compound, how does the IC50 read?
The IC50 was < 200 nM.

Which IC50 does the source give for `CNc1cc(-c2ccc(/C=C/C(=O)OC)cc2)nc(N)n1` [Example 106, methyl (2E)-3-{4-[2-amino-6-(methylamino)pyrimidin-4-yl]phenyl}prop-2-enoate] here?
The IC50 was < 200 nM.

`CNc1cc(-c2cccc(/C=C/C(=O)OC)c2)nc(N)n1` [Example 107, methyl (2E)-3-{3-[2-amino-6-(methylamino)pyrimidin-4-yl]phenyl}prop-2-enoate] was tested. Which IC50 did it give?
The IC50 was < 200 nM.

With `CNc1cc(-c2ccc(C(C)=O)cc2)nc(N)n1` [Example 109, 1-(4-(2-Amino-6-(methylamino)pyrimidin-4-yl)phenyl)ethanone] as the compound, how does the IC50 read?
Its IC50 is < 200 nM.

`Cc1cccc(-c2cc(NC3CC3)nc(N)n2)c1C` [Example 114, 4-N-cyclopropyl-6-(2,3-dimethylphenyl)pyrimidine-2,4-diamine] was tested. Which IC50 did it give?
Its IC50 is < 200 nM.

`CNc1cc(-c2c[nH]c3ccccc23)nc(N)n1` [Example 116, 6-(1H-indol-3-yl)-4-N-methylpyrimidine-2,4-diamine] was tested. Which IC50 did it give?
Its IC50 is < 200 nM.

From US10632125B2, “MTH1 inhibitors for treatment of inflammatory and autoimmune conditions” (THOMAS HELLEDAYS STIFTELSE FÖR MEDICINSK FORSKNING, priority 2014, dated 2020)
